Reference: publication PMC9763021, “Comprehensive Assessment of Biomolecular Interactions of Morpholine-Based Mixed Ligand Cu(II) and Zn(II) Complexes of 2,2′-Bipyridine as Potential Anticancer and SARS-CoV-2 Agents: A Synergistic Experimental and Structure-Based Virtual Screening” (Bioinorganic Chemistry and Applications, 2022)

What was measured:
[1] = Hydroxyl radical scavenging assay; format: biochemical; details: for % Inhibition hydroxyl radical: 230 nm
Procedure: (§1) All samples were evaluated for their scavenging ability with the help of UV-visible spectrophotometer at different concentrations of 40, 80, 120, 160, 200, and 240 μM [6, 28]. While performing the antioxidant properties for the DPPH, hydroxyl, superoxide, and nitric oxide radical scavenging, the absorbance at 517, 230, 590, and 546 nm, respectively, was closely observed. In addition, the observed IC50 values of all samples were compared with ascorbic acid.
Hydrogen peroxide receives electrons from antioxidant molecules and then neutralizes them into a water molecule. ^●OH inhibition capability was determined from the % of inhibition for all test substances at 230 nm.

Pseudomonas aeruginosa = assay: Agar disc diffusion, strain D; format: cell-based; set-up: (inhibition %): concentration or dose not given beside the values; details: for diameter of the clear zone inhibition: control = 6 mm
Procedure: (§2) In-vitro antimicrobial properties were evaluated for all samples by the agar disc diffusion method towards different fungal and bacterial strains. Additionally, the reported inhibition zone values were comparatively analyzed with the standard antifungal drugs ketoconazole and amphotericin B as well as the standard antibiotic medications streptomycin and amikacin.
(§3) The current research has a curious focus on the in vitro antimicrobial properties of biological systems because these studies are crucial for developing effective antibacterial and antifungal medications. […] It can also be spelled out based on the chelation theory proposed by Overtone and Tweedy. Chelation theory points out that the partial exchanging of the positive charge of the metal center with donor moieties, and overlap of the ligand orbitals will reduce the greater degree of the metal ion's polarity, which ultimately rises the delocalization of π and d electrons over the full chelated ring system. By raising the size of the metal ion due to the retarding of polarization, chelation may also enhance the complexes' lipophilic characteristics, which further stimulate the lipid membrane permeability and break down the bacteria' enzymes responsible for cell wall formation, therefore slowing down the regular cell processes. By preventing the production of cell walls/proteins/DNA, including by obstructing folate metabolism and the cytoplasmic membrane, antimicrobial drugs frequently either fully eliminate microbes or only prevent their cell growth. Additionally, the samples' mode of action may be employed in disrupting the cell's respiration process by forming an H-bond during the morpholine-fused iminic group coordinated with the active metal center of its components, inhibiting proliferation of the cell. […] The difference in the antimicrobial efficacy of some of the compounds towards various microorganisms influences on the impermeability of the cells of the germs or the diversity of ribosomes of the microbes. The % of the inhibition of all substances is estimated from (45) (Table 9).
(§4) (A, B, C, D, and E are represented as gram negative bacteria species Escherichia coli, Salmonella enteric serovar typhi, Salmonella enteric serovar typhi, Pseudomonas aeruginosa, and Shigella flexneri, respectively. F & G are denoted as gram positive bacteria species Staphylococcus aureus and Bacillus cereus. H, I, and J are represented as fungal strains Aspergillus niger, Candida albicans, and Mucor indicus. Standard drugs for bacterial strains: Amikacin & Streptomycin Standard drugs for fungal strains: Ketoconazole and Amphotericin B. [Control (DMSO) = 6 mm].(44) Inhibition %=T–C/T×100, where T and C are represented as the diameter of microbial growth of the sample plates and the control plate (6 mm), respectively. Error limits ±2.5–5.0% (P ≤ 0.05).

Staphylococcus aureus = assay: Agar disc diffusion, strain F; format: cell-based; set-up: (inhibition %): concentration or dose not given beside the values; details: for diameter of the clear zone inhibition: control = 6 mm
Procedure: as §2, §3, §4

[2] = Superoxide scavenging assay; format: biochemical; details: for % Inhibition superoxide: 590 nm
Procedure: as §1
A vital enzyme catalyst in the body's defence against free radicals, superoxide dismutase (SOD) quickly and efficiently reduces toxicity and cellular damage by exchanging superoxide with water (or) harmless molecules. The % of inhibition for all substances was analyzed at 590 nm. The outcomes were obtained in the subsequent order: (ascorbic acid) 84.85 > (1a) 67.17 > (2a) 58.18 > (HL) 50.42.

Mucor indicus = assay: Agar disc diffusion, strain J; format: cell-based; set-up: (inhibition %): concentration or dose not given beside the values; details: for diameter of the clear zone inhibition: control = 6 mm
Procedure: as §2, §3, §4

| SMILES | IC50 [1] [µM] | % Inhibition hydroxyl radical ([1]; 40 µM) [%] | % Inhibition hydroxyl radical ([1]; 80 µM) [%] | % Inhibition hydroxyl radical ([1]; 120 µM) [%] | % Inhibition hydroxyl radical ([1]; 160 µM) [%] | % Inhibition hydroxyl radical ([1]; 200 µM) [%] | % Inhibition hydroxyl radical ([1]; 240 µM) [%] | (inhibition %) (Pseudomonas aeruginosa) [%] | diameter of the clear zone inhibition (Pseudomonas aeruginosa) [mm] | (inhibition %) (Staphylococcus aureus) [%] | diameter of the clear zone inhibition (Staphylococcus aureus) [mm] | IC50 [2] [µM] | % Inhibition superoxide ([2]; 40 µM) [%] | % Inhibition superoxide ([2]; 80 µM) [%] | % Inhibition superoxide ([2]; 120 µM) [%] | % Inhibition superoxide ([2]; 160 µM) [%] | % Inhibition superoxide ([2]; 200 µM) [%] | % Inhibition superoxide ([2]; 240 µM) [%] | (inhibition %) (Mucor indicus) [%] | diameter of the clear zone inhibition (Mucor indicus) [mm] |
| --- | --- | --- | --- | --- | --- | --- | --- | --- | --- | --- | --- | --- | --- | --- | --- | --- | --- | --- | --- | --- |
| [Cu+2].[O-]c1ccccc1N=Cc1ccc(N2CCOCC2)cc1.[O-]c1ccccc1N=Cc1ccc(N2CCOCC2)cc1.c1ccc(-c2ccccn2)nc1 [(1a), [Cu(L)2(bpy)]] | 200 | 09.16 | 18.23 | 32.22 | 40.12 | 51.14 | 61.10 | 33 | 09 | 50 | 12 | 200 | 08.32 | 16.45 | 31.86 | 47.69 | 60.03 | 67.17 | 50 | 12 |
| Oc1ccccc1N=Cc1ccc(N2CCOCC2)cc1 [(HL), 2-(4-morpholinobenzylideneamino)phenol] |  | 07.26 | 14.43 | 25.52 | 33.86 | 40.73 | 50.68 | 25 | 08 | 33 | 09 |  | 05.23 | 10.74 | 18.85 | 33.55 | 40.91 | 50.42 | 45 | 11 |
| [O-]c1ccccc1N=Cc1ccc(N2CCOCC2)cc1.[O-]c1ccccc1N=Cc1ccc(N2CCOCC2)cc1.[Zn+2].c1ccc(-c2ccccn2)nc1 [(2a), [Zn(L)2(bpy)]] |  | 08.25 | 16.86 | 25.78 | 34.66 | 45.78 | 56.14 | 33 | 09 | 45 | 11 |  | 06.32 | 12.67 | 24.14 | 40.20 | 51.92 | 58.18 | 60 | 15 |
